From patent US7682630B2, “Antitumor agent and process for producing the same” (priority 2003, dated 2010)

Assays:
[1] = Side effects / hematological toxicity in S-180 bearing mice; type: in vivo; settings: 10 mg/kg iv
Description: S-180 bearing mice with tumors of about 5-7 mm in diameter were used for this study. Full blood analysis was performed weekly for 4 weeks before and after 1, 2 and 3 weeks of iv injections of either doxorubicin, pirarubicin or their SMA micelle complexes as described above. Blood biochemistry including, alanine aminotransferase (ALT), aspartate aminotransferase (AST), lactic dehydrogenase (LDH) and total creatine phosphokinase (CPK) were measured at 36 hr after i.v. administration of either free drugs or SMA-micelle complexes.
At the same time, the heart, spleen, liver and kidney tissues were stained with hematoxylin-eosin (H&E staining) for determination of cytological tissue toxicity.

[2] = Release of free drug from the dialysis bag; type: physicochemical; settings: same dialysis setting
Description: It is of importance that large molecular weight polymeric drugs having apparent molecular size larger than 10.000, preferably more than 50 KDa such as SMA-anthracyclin micelles, to exert tumor seeking EPR-effect, and thereby ultimately releasing free drug. To verify the drug complexes of the present invention release free drug from the micelle or polymeric conjugate in vitro, 20 mg of SMA-doxorubicin conjugates or SMA-pirarubicin conjugates was dissolved in 5 ml H2O and placed in sealed dialysis bag (M. W cut off 1.000; Spectrapor, Spectrum Laboratories Inc. CA. USA.). The dialysis bag was submerged in 25 ml of H2O with adjusted pH either at 7.4 to resemble circulating blood or pH 5.5 for tumor tissue, using 0.01 M NaOH and 0.01 M HCl, and incubated at 37° C. for several days in the dark. […] The released pirarubicin or doxorubicin outside the dialysis bag was collected at pre-determined time and amount was quantified by absorbance at 480 nm.
When the outside solution was replaced by ethanol the release rate has increased tremendously indicating the disruption of the hydrophobic interaction in the complex between the anthracyclins and the styrene hydrophobic moiety of SMA. One can envisage this hydrophobic environment would be more close to the endosome after internalization of the polymeric micelle into cytoplasm of cancer cell by endocytosis. […]

Structure (SMILES)	Erythrocyte ([1]; 1 week)	Hemoglobin ([1]; 1 week)	Leucocyte ([1]; 1 week)	Survival Rate ([1]; 1 week)	Thrombocyte ([1]; 1 week)	Erythrocyte ([1]; 2 week)	Hemoglobin ([1]; 2 week)	Leucocyte ([1]; 2 week)	Survival Rate ([1]; 2 week)	Thrombocyte ([1]; 2 week)	Erythrocyte ([1]; 3 week)	Hemoglobin ([1]; 3 week)	Leucocyte ([1]; 3 week)	Survival Rate ([1]; 3 week)	Thrombocyte ([1]; 3 week)	time for free drug to extravasate out of the dialysis tube [2]
COc1cccc2c1C(=O)c1c(O)c3c(c(O)c1C2=O)CC(O)(C(=O)CO)CC3OC1CC(N)C(OC2CCCCO2)C(C)O1 (centres unmarked) [Free pirarubicin, pirarubicin]	490.6 ± 144 ×10,000/mm^3	11.1 ± 0.9 g/dL	2533 ± 108 /mm^3	100%	67.7 ± 0.9 ×1,000/mm^3	876 ×10,000/mm^3	12.1 g/dL	5000 /mm^3	25%	130 ×1,000/mm^3	916 ×10,000/mm^3	15.7 g/dL	4500 /mm^3	25%	143 ×1,000/mm^3	within a few hours
COc1cccc2c1C(=O)c1c(O)c3c(c(O)c1C2=O)C[C@@](O)(C(=O)CO)C[C@@H]3O[C@H]1C[C@H](N)[C@H](O)[C@H](C)O1 [doxorubicin]	–	–	–	–	–	–	–	–	–	–	–	–	–	–	–	within a few hours
